“Also recorded” adds a separate entry of the source. Where two headings read alike, the source gives them in different places.
Columns and labels:
MIAPaCa-2 cells = experiment: MTT cytotoxicity assay in MIAPaCa-2 cells; assay type: cell-based, Human; settings: 1 μM, 48 h
Protocol: (§1) Figure 3 Growth-inhibitory effects of gemcitabine and of its amino-acid-conjugated derivatives on BxPC-3, MIAPaCa-2, A549, MDA-MB-231 B16 cells after exposure to 1 μM concentrations for 48 h, as estimated by MTT assay (mean ± SD, n = 3). Experiments were performed three times independently. * p < 0.05, compared with free gemcitabine group.
(§2) Human pancreatic cancer cells (MIAPaCa-2, BxPC-3 and AsPC-1), lung cancer cell lines (A549), human breast cancer cell lines (MDA-MB-231) and melanoma cell lines (B16) were purchased from the American Type Culture Collection (Manassas, VA, USA). MIAPaCa-2 and B16-F10 cells were cultured in Dulbecco’s modified Eagle’s medium (DMEM) supplemented with 10% heat-inactivated fetal bovine serum (FBS) and 1% penicillin/streptomycin. Aspc-1, BxPC-3 MDA-MB-231 and A549 cells were cultured in Roswell Park Memorial Institute 1640 (RPMI-1640) medium supplemented with 10% FBS and 1% penicillin/streptomycin. FBS and all other reagents used for cell culture were purchased from Invitrogen (Carlsbad, CA, USA). Cultures were maintained at 37 °C in 95% air /5% CO2 humidified atmosphere.
(§3) Cancer cell viabilities after treatment with gemcitabine or its derivatives were quantified using MTT assay as described previously. […] After incubation for 4 h, optical densities (OD) were determined using a microplate reader by measuring absorbances at 540 nm.

[1] = Systemic (intravenous) pharmacokinetics in rats; assay type: in vivo, rat; settings: 4 mg/kg i.v.
Protocol: This study was performed in male Sprague-Dawley (SD) rats (Orient Bio, Sungnam, Korea), as described previously. Rats were provided water and food ad libitum and maintained under a 12:12-h light/dark cycle. On the experimental day, a femoral vein and contralateral artery were cannulated using an Intramedic™ polyethylene tube (PE-50; Becton Dickinson Diagnostics, Sparks, MD, USA) under Zoletil induced anesthesia (50 mg/kg intramuscularly; Virbac, Carros, France). For the intravenous pharmacokinetic study, Gem-Thr or gemcitabine solution were injected into a femoral vein at 4 mg/kg. Blood (~0.22 mL) was taken from the femoral artery at 0 (blank), 1, 5, 15, 30, 60, 120, 240, 480, 720, or 1440 min. To prevent blood loss, the same volume of normal saline was injected intravenously at each time point. Plasma was obtained immediately centrifugation and then stored at −80 °C prior to LC-MS/MS.
The pharmacokinetic parameters of Gem-Thr, gemcitabine, Gem-Thr plus gemcitabine, and free gemcitabine were calculated by non-compartmental analysis using WinNonlin (Version 3.1; Pharsight, Mountain View, CA, USA), as described previously (Park et al., 2016).
To determine concentrations of Gem-Thr and gemcitabine in rat plasma, plasma samples were deproteinized by adding two volumes of acetonitrile containing internal standard (phenacetin). After mixing, mixtures were centrifuged at 14,000× g for 10 min.
Aliquots of supernatants (2-µL) were injected into the LC-MS/MS system, which consisted of an Agilent HPLC and an Agilent 6490 QQQ mass spectrometer equipped with an ESI+ Agilent Jet Stream ion source (Agilent Technologies, Santa Clara, CA, USA). The separation of each drug and IS from endogenous plasma substances was achieved on a Synergi Polar-RP 80A column (150 × 2.0 mm, 4 μm; Phenomenex, Torrance, CA, USA). The mobile phase consisted of 0.1% formic acid and acetonitrile (20:80, v/v) at a flow rate of 0.2 mL/min. The column and autosampler tray were maintained at 25 and 4 °C, respectively. Gemcitabine, Gem-Thr, and the IS were quantified by multiple-reaction monitoring (MRM) in positive electrospray ionization mode. Respective precursor-to-product ion transitions were as follows: Gemcitabine, 264.1→112.1, Gem-Thr, 387.1→343.2, and IS (phenacetin), 180.2→162.2. Data acquisition was performed using Mass Hunter software (ver. A.02.00; Agilent Technologies).

BxPC-3 cells [2] = experiment: Apoptosis: cleaved PARP western blot and TUNEL assay; assay type: cell-based, Human; settings: 1 µM, 24 h treatment
Protocol: BxPC-3 cells were washed with DPBS and lysed with RIPA buffer (Biosesang, Seongnam, Korea) containing 150 mM NaCl, 1% Triton X-100, 1% sodium deoxycholate, 0.1% SDS, 50 mM Tris-HCl (pH 7.5), 2 mM EDTA (pH 8.0), and Xpert protease inhibitor and phosphatase inhibitor Cocktail (GenDEPOT, Barker, TX, USA). Proteins were separated by 8% or 15% SDS-PAGE (sodium dodecylsulfate-polyacrylamide gel electrophoresis) and transferred to polyvinylidene fluoride (PVDF) membranes. […] Antibody binding was detected using an enhanced chemiluminescence (ECL) reagent (Bio-Rad, Hercules, CA, USA) using primary antibodies specific to proteins of interest, and proteins were detected using X-ray film and enhanced chemiluminescence reagent. Primary antibodies against the following were used: LAT-1, cleaved PARP (Cell Signaling Technologies, Beverly, MA, USA), GAPDH (Abcam, Cambridge, MA, USA), and β-actin (Sigma Aldrich, St. Louis, MO, USA). Secondary antibodies were purchased from Cell signaling technology.
TUNEL assay was conducted with the ApopTag® Peroxidase In Situ Apoptosis Detection Kit (Merck Millipore, Burlington, MA, USA). Briefly, BxPC-3 cells were seeded onto 18-mm cover glasses in medium and grown to ~70% confluence over 24 h.

[3] = 37 °C
Protocol: The metabolic stability of Gem-Thr was examined in the presence of PBS (pH 7.4), rat plasma, or liver microsomes as described previously (Maeng et al., 2014). Fresh rat plasma was obtained from sacrificed SD rats (260–280 g) after centrifuging blood (12,000× g, 15 min). Rat liver microsomes were obtained from BD Gentest. Gem-Thr (10 µM) was spiked into PBS, blank rat plasma, or liver microsomes (1 mg protein/mL) and incubated in a shaking water bath at 37 °C for 8 h. Aliquots (50-µL) were taken after 0, 15, 30, 60, 120, 240, […], or 480 min of incubation, immediately pretreated with ice-cold methanolic solution including the internal standard, vortexed for 3 min and centrifuged (12,000× g, 10 min). Supernatants were stored at −80 °C until required for analysis.

BxPC-3 cells [4] = experiment: MTT cytotoxicity assay in BxPC-3 cells; assay type: cell-based, Human; settings: 48 h
Protocol: as §1, §2
Cancer cell viabilities after treatment with gemcitabine or its derivatives were quantified using MTT assay as described previously. Briefly, cells were seeded onto 96-well plates at 3 × 10^3 cells per well and incubated at 37 °C. The cells were treated with each compound at indicated concentrations for 48 h and then, 20 μL of MTT labeling mixture was added to each well. After incubation for 4 h, optical densities (OD) were determined using a microplate reader by measuring absorbances at 540 nm.

[5] = parameters: method as in PMID 18519786; settings: in man; cited from earlier work
[6] = tested on: MDA-MB-231 (breast cancer cells); experiment: MTT cytotoxicity assay in MDA-MB-231 cells; assay type: cell-based, human; settings: 1 μM, 48 h
Protocol: as §1, §2, §3

A549 (lung cancer cells) = experiment: MTT cytotoxicity assay in A549 cells; assay type: cell-based; settings: 1 μM, 48 h
Protocol: as §1, §2, §3

[7] = parameters: method as in PMID 19860433; settings: cited from earlier work
B16 (melanoma cells) = experiment: MTT cytotoxicity assay in B16 cells; assay type: cell-based; settings: 1 μM, 48 h
Protocol: Human pancreatic cancer cells (MIAPaCa-2, BxPC-3 and AsPC-1) [21], lung cancer cell lines (A549) [22], human breast cancer cell lines (MDA-MB-231) [23] and melanoma cell lines (B16) [24] were purchased from the American Type Culture Collection (Manassas, VA, USA). MIAPaCa-2 and B16-F10 cells were cultured in Dulbecco’s modified Eagle’s medium (DMEM) supplemented with 10% heat-inactivated fetal bovine serum (FBS) and 1% penicillin/streptomycin. Aspc-1, BxPC-3 MDA-MB-231 and A549 cells were cultured in Roswell Park Memorial Institute 1640 (RPMI-1640) medium supplemented with 10% FBS and 1% penicillin/streptomycin. […] Cultures were maintained at 37 °C in 95% air /5% CO2 humidified atmosphere.
Cancer cell viabilities after treatment with gemcitabine or its derivatives were quantified using MTT assay as described previously [25]. Briefly, cells were seeded onto 96-well plates at 3 × 10^3 cells per well and incubated at 37 °C. The cells were treated with each compound at indicated concentrations for 48 h and then, 20 μL of MTT labeling mixture was added to each well. After incubation for 4 h, optical densities (OD) were determined using a microplate reader by measuring absorbances at 540 nm.

[8] = analyte = administered compound

C[C@@H](O)[C@H](N)C(=O)Nc1ccn([C@@H]2O[C@H](CO)[C@@H](O)C2(F)F)c(=O)n1 [Gem-Thr, (2S,3R)-2-Amino-N-(1-((2R,4R,5R)-3,3-difluoro-4-hydroxy-5-(hydroxylmethyl)tetra-hydrofuran-2-yl)-2-oxo-1,2-dihydropyrimidin-4-yl)-3-hydroxybutanamide2-(4-((pyridin-3-ylmethyl)amino)quinazolin-2-yl)phenol]
anti-cancer effect (cytotoxicity) (MIAPaCa-2 cells): most potent anticancer effect; also recorded: more effective than free gemcitabine
AUC of sum of Gem-Thr and gemcitabine (metabolite) versus gemcitabine alone [1]: 3.62 fold
AUC [1, 8]: 1713.85 ± 1082.40 µg·min/mL
CL [1, 8]: 2.85 ± 1.33 mL/min/kg
MRT [1, 8]: 3.953 ± 0.3478 h
Terminal t1/2 [1, 8]: 3.9363 ± 0.849 h
Vss [1, 8]: 0.66235 ± 0.2814 L/kg
increase of systemic exposure (AUC of gemcitabine) versus free gemcitabine ([1]; formed gemcitabine vs free gemcitabine): 1.83 fold
apoptosis (cleaved PARP, TUNEL positive cells) (BxPC-3 cells [2]): induced apoptosis significantly
fraction of Gem-Thr metabolized in rat plasma ([3]; 10 µM, after 8 h): 20%
metabolic stability in rat plasma ([3]; 10 µM, up to 8 h): metabolically stable
stability in PBS ([3]; PBS pH 7.4, 10 µM, up to 8 h): metabolically stable
metabolic stability in rat liver microsomal fractions ([3]; rat liver microsomes 1 mg protein/mL, 10 µM, up to 8 h): metabolically stable
anti-cancer effect (cytotoxicity) (BxPC-3 cells [4]; 1 μM): most potent anticancer effect; also recorded: more effective than free gemcitabine
cell viability (BxPC-3 cells [4]; 1 μM): 44.7%

Nc1ccn([C@@H]2O[C@H](CO)[C@@H](O)C2(F)F)c(=O)n1 [gemcitabine, 2′-2′-difluorodeoxycytidine]
half-life [5]: 9 min
anti-cancer effect (cytotoxicity) (MIAPaCa-2 cells): significant anti-cancer effects
clearance ([1]; male, Sprague-Dawley, rat, plasma, iv, analyte = administered compound): 4.23 ± 0.23 mL/min/kg
AUC ([1]; male, Sprague-Dawley, rat, plasma, iv, analyte = administered compound, read-out: AUC (converted)): 948 µg·min/mL
MRT ([1]; male, Sprague-Dawley, rat, plasma, iv, analyte = administered compound, read-out: MRT (converted)): 9.7 h
half-life ([1]; male, Sprague-Dawley, rat, plasma, iv, analyte = administered compound, read-out: Terminal t1/2): 8.88 ± 2.96 h
Vd ([1]; male, Sprague-Dawley, rat, plasma, iv, analyte = administered compound, read-out: Vss): 2.48 ± 0.867 L/kg
anti-cancer effect versus vehicle treated controls [6]: neither gemcitabine nor gemcitabine derivatives had any significant anti-cancer effect
apoptosis (cleaved PARP, TUNEL positive cells) (BxPC-3 cells [2]): induced apoptosis significantly
anti-cancer effect versus vehicle treated controls (A549 (lung cancer cells)): neither gemcitabine nor gemcitabine derivatives had any significant anti-cancer effect
oral bioavailability (BA) [7]: low oral bioavailability
anti-cancer effect (cytotoxicity) (B16 (melanoma cells)): significant anti-cancer effects
anti-cancer effect (cytotoxicity) (BxPC-3 cells [4]; 1 μM): significant anti-cancer effects
viability at 1 µM (BxPC-3 cells [4]; Homo sapiens, read-out: cell viability): 54.1%
